{
  "source": "ChEMBL document CHEMBL4725390",
  "about": "“Asymmetrically Substituted Quadruplex-Binding Naphthalene Diimide Showing Potent Activity in Pancreatic Cancer Models” (ACS Med Chem Lett, 2020)",
  "key": {"[1]": {"test_system": "Quadruplex DNA", "assay": "Binding affinity to G4 quadruplex DNA in human PANC1 cells assessed as BG4 foci formation at 800 nM after 6 hrs by immunofluorescence based confocal microscopic analysis", "format": "cell-based", "details": "PANC-1"}, "[2]": {"test_system": "CAPAN-1", "assay": "Antiproliferative activity against human Capan1 cells assessed as growth inhibition after 96 hrs by SRB assay", "format": "functional"}, "[3]": {"test_system": "BXPC-3", "assay": "Antiproliferative activity against human BxPC3 cells assessed as growth inhibition after 96 hrs by SRB assay", "format": "functional"}, "[4]": {"assay": "Half life in rat at 1 mg/kg, iv administered as single dose", "format": "ADME, organism-based", "details": "in vivo"}, "[5]": {"assay": "Toxicity in mouse xenografted with human MIAPaCa2 cells assessed as drug tolerability at 1 mg/kg, iv administered once per week for 28 days", "format": "organism-based", "details": "in vivo, 672 h, time 28 day"}, "[6]": {"test_system": "MIA PaCa-2", "assay": "Antiproliferative activity against human MIAPaCa2 cells assessed as growth inhibition after 96 hrs by SRB assay", "format": "functional"}, "[7]": {"assay": "Volume of distribution at steady state in mouse xenografted with human MIAPaCa2 cells at 0.96 mg/kg, iv administered as single dose", "format": "ADME, organism-based", "details": "in vivo, read-out: Vdss"}, "[8]": {"assay": "AUC (infinity) in mouse xenografted with human MIAPaCa2 cells at 0.96 mg/kg, iv administered as single dose", "format": "ADME, organism-based", "set-up": "time infinity, route intravenous, dose 0.96 mg/kg", "details": "in vivo"}, "[9]": {"test_system": "MIA PaCa-2", "assay": "Antitumor activity against human MIAPaCa2 cells xenografted in mouse assessed as mean tumor volume at 1 mg/kg, iv administered once per week for 28 days and measured at day 28 by Caliper method (reference value: 0.45 +/- 0.18 cm3)", "format": "functional", "details": "time 28 day"}, "[10]": {"test_system": "MIA PaCa-2", "assay": "Antitumor activity against human MIAPaCa2 cells xenografted in mouse assessed as mean tumor volume at 1 mg/kg, iv administered twice per week for 28 days and measured at day 53 by Caliper method (reference value: 1.60 +/- 0.44 cm3)", "format": "functional", "details": "time 28 day"}, "[11]": {"test_system": "MIA PaCa-2", "assay": "Antitumor activity against human MIAPaCa2 cells xenografted in mouse assessed as change in tumor volume at 15 mg/kg, iv administered twice per week for 28 days and measured at day 53 by Caliper method relative to control", "format": "functional", "details": "time 28 day"}, "[12]": {"assay": "Downregulation of APC2 mRNA expression in human MIAPaCa2 cells at 40 nM after 6 hrs by RNA sequencing analysis relative to control", "format": "functional, MIA PaCa-2"}, "[13]": {"assay": "Downregulation of GLI1 mRNA expression in human MIAPaCa2 cells at 40 nM after 6 hrs by RNA sequencing analysis relative to control", "format": "functional, MIA PaCa-2"}, "[14]": {"assay": "Downregulation of Bcl2 mRNA expression in human MIAPaCa2 cells at 40 nM after 6 hrs by RNA sequencing analysis relative to control", "format": "functional, MIA PaCa-2"}, "[15]": {"assay": "Downregulation of hTERT mRNA expression in human MIAPaCa2 cells at 40 nM after 6 hrs by RNA sequencing analysis relative to control", "format": "functional, MIA PaCa-2"}, "[16]": {"assay": "Downregulation of APC2 mRNA expression in human MIAPaCa2 cells at 40 nM after 24 hrs by RNA sequencing analysis relative to control", "format": "functional, MIA PaCa-2"}, "[17]": {"assay": "Downregulation of GLI1 mRNA expression in human MIAPaCa2 cells at 40 nM after 24 hrs by RNA sequencing analysis relative to control", "format": "functional, MIA PaCa-2"}, "[18]": {"assay": "Downregulation of Bcl2 mRNA expression in human MIAPaCa2 cells at 40 nM after 24 hrs by RNA sequencing analysis relative to control", "format": "functional, MIA PaCa-2"}, "[19]": {"assay": "Toxicity in mouse xenografted with human MIAPaCa2 cells assessed as effect on neuronal clinical signs at 1 mg/kg, iv administered once per week for 28 days", "format": "organism-based", "details": "in vivo, 672 h, time 28 day"}, "[20]": {"test_system": "MIA PaCa-2", "assay": "Downregulation of TNF signaling pathway related gene expression in human MIAPaCa2 cells at 40 nM after 6 hrs by RNA sequencing analysis", "format": "functional, cell-based"}, "[21]": {"test_system": "MIA PaCa-2", "assay": "Downregulation of NF-kappaB signalling pathway related gene expression in human MIAPaCa2 cells at 40 nM after 6 hrs by RNA sequencing analysis", "format": "functional, cell-based"}, "[22]": {"test_system": "MIA PaCa-2", "assay": "Downregulation of axon guidance related gene expression in human MIAPaCa2 cells at 40 nM after 24 hrs by RNA sequencing analysis", "format": "functional, cell-based"}, "[23]": {"test_system": "MIA PaCa-2", "assay": "Downregulation of DNA replication associated gene expression in human MIAPaCa2 cells at 40 nM after 24 hrs by RNA sequencing analysis", "format": "functional, cell-based"}, "[24]": {"assay": "Toxicity in mouse xenografted with human MIAPaCa2 cells assessed as drug tolerability at 1 mg/kg, iv administered twice per week for 28 days", "format": "organism-based", "details": "in vivo, 672 h, time 28 day"}, "[25]": {"assay": "Toxicity in mouse xenografted with human MIAPaCa2 cells assessed as effect on neuronal clinical signs at 1 mg/kg, iv administered twice per week for 28 days", "format": "organism-based", "details": "in vivo, 672 h, time 28 day"}, "[26]": {"test_system": "Mus musculus", "assay": "Up regulation of cleaved PARP protein expression in mouse xenografted with human MIAPaCa2 cells at 1 mg/kg, iv administered once per week for 28 days measured on day 28 by Western blot analysis", "format": "functional, organism-based", "details": "time 28.0 day"}, "[27]": {"test_system": "Mus musculus", "assay": "Effect on hTERT expression in mouse xenografted with human MIAPaCa2 cells at 1 mg/kg, iv administered once per week for 28 days and measured on day 28 by Western blot analysis", "format": "functional, organism-based", "details": "time 28.0 day"}, "[28]": {"test_system": "PANC-1", "assay": "Potency index, ratio of 2,7-bis(3-morpholinopropyl)-4-((2-(pyrrolidin-1-yl)ethyl)amino)benzo[lmn][3,8]phenanthroline-1,3,6,8(2H,7H)-tetraone IC50 to test compound IC50 for human PANC1 cells measured after 96 hrs by SRB assay", "format": "functional"}, "[29]": {"test_system": "CAPAN-1", "assay": "Potency index, ratio of 2,7-bis(3-morpholinopropyl)-4-((2-(pyrrolidin-1-yl)ethyl)amino)benzo[lmn][3,8]phenanthroline-1,3,6,8(2H,7H)-tetraone IC50 to test compound IC50 for human Capan1 cells measured after 96 hrs by SRB assay", "format": "functional"}},
  "note": "The source made the active and inactive calls. No cut-off for these calls is given here.",
  "data": [
    {"smiles": "O=C1c2cc(-c3ccc(CN4CCCC4)cc3)c3c4c(cc(NCCN5CCCC5)c(c24)C(=O)N1CCCN1CCOCC1)C(=O)N(CCCN1CCOCC1)C3=O", "note": "[QN-302]", "values": [
      {"measurement": "Activity", "setting": "[1]", "value": "inactive"},
      {"measurement": "GI50", "setting": "[2]", "value": 5.9, "unit": "nM"},
      {"measurement": "GI50", "setting": "[3]", "value": 2.6, "unit": "nM"},
      {"measurement": "half-life", "setting": "[4]", "value": 36, "unit": "h"},
      {"measurement": "Activity", "setting": "[5]", "value": "Non-Toxic"},
      {"measurement": "GI50", "setting": "[6]", "value": 1.3, "unit": "nM"},
      {"measurement": "Vd", "setting": "[7]", "value": 1.2, "unit": "L/kg"},
      {"measurement": "AUC(0-inf)", "setting": "[8]", "value": 8270, "unit": "ng·h/mL"},
      {"measurement": "Activity", "setting": "[9]", "value": 0.08, "unit": "cm3"},
      {"measurement": "Activity", "setting": "[10]", "value": 0.15, "unit": "cm3"},
      {"measurement": "Activity", "setting": "[11]", "value": -78.1, "unit": "%"},
      {"measurement": "log2FC", "setting": "[12]", "value": 1.88},
      {"measurement": "log2FC", "setting": "[13]", "value": 0.66},
      {"measurement": "log2FC", "setting": "[14]", "value": 0.58},
      {"measurement": "log2FC", "setting": "[15]", "value": 2.29},
      {"measurement": "log2FC", "setting": "[16]", "value": 1.06},
      {"measurement": "log2FC", "setting": "[17]", "value": 1.84},
      {"measurement": "log2FC", "setting": "[18]", "value": 1.75},
      {"measurement": "Activity", "setting": "[19]", "value": "Non-Toxic"},
      {"measurement": "inhibition", "setting": "[20]", "value": "Active"},
      {"measurement": "inhibition", "setting": "[21]", "value": "Active"},
      {"measurement": "inhibition", "setting": "[22]", "value": "Active"},
      {"measurement": "inhibition", "setting": "[23]", "value": "Active"},
      {"measurement": "Activity", "setting": "[24]", "value": "Non-Toxic"},
      {"measurement": "Activity", "setting": "[25]", "value": "Non-Toxic"},
      {"measurement": "Activity", "setting": "[26]", "value": "Active"},
      {"measurement": "Activity", "setting": "[27]", "value": "inactive"},
      {"measurement": "Ratio IC50", "setting": "[28]", "value": 10},
      {"measurement": "Ratio IC50", "setting": "[29]", "value": 5}
    ]}
  ]
}
